Reference: ChEMBL document CHEMBL5625200 (Eur J Med Chem, 2023)
The source made the active and inactive calls. The rule behind the calls is not given here.

Legend:
Rattus norvegicus [1] = assay: Antihypertensive activity against MCT-induced Wistar albino rat PAH model assessed as decreased right ventricular hypertrophy at 300 mg/kg, sc administered for 21 days (reference value: 0.42 +/- 0.020 […]); assay type: functional; conditions: time 21 day
Rattus norvegicus [2] = assay: Antihypertensive activity against MCT-induced Wistar albino rat PAH model assessed as decreased right ventricular hypertrophy at 150 mg/kg, sc administered for 21 days (reference value: 0.42 +/- 0.020 […]); assay type: functional; conditions: time 21 day
Rattus norvegicus [3] = assay: Antihypertensive activity against MCT-induced Wistar albino rat PAH model assessed as decreased mean pulmonary arterial pressure at 300 mg/kg, sc administered for 21 days (reference value: 19.18 +/- 0.360 mmHg); assay type: functional; conditions: time 21 day
Rattus norvegicus [4] = assay: Antihypertensive activity against MCT-induced Wistar albino rat PAH model assessed as decreased mean pulmonary arterial pressure at 150 mg/kg, sc administered for 21 days (reference value: 19.18 +/- 0.360 mmHg); assay type: functional; conditions: time 21 day
Rattus norvegicus [5] = assay: Antihypertensive activity against MCT-induced Wistar albino rat PAH model assessed as decreased right ventricular systolic pressure at 300 mg/kg, sc administered for 21 days (reference value: 55.19 +/- 0.026 mmHg); assay type: functional; conditions: time 21 day
Rattus norvegicus [6] = assay: Antihypertensive activity against MCT-induced Wistar albino rat PAH model assessed as decreased right ventricular systolic pressure at 150 mg/kg, sc administered for 21 days (reference value: 55.19 +/- 0.026 mmHg); assay type: functional; conditions: time 21 day
Endothelin-1 receptor = molecular target: T1, Endothelin-1 receptor (Homo sapiens, UniProt P25101); assay: Antagonist activity against human ET-1 by ELISA analysis; assay type: functional
T1 sequence (P25101 whole entry): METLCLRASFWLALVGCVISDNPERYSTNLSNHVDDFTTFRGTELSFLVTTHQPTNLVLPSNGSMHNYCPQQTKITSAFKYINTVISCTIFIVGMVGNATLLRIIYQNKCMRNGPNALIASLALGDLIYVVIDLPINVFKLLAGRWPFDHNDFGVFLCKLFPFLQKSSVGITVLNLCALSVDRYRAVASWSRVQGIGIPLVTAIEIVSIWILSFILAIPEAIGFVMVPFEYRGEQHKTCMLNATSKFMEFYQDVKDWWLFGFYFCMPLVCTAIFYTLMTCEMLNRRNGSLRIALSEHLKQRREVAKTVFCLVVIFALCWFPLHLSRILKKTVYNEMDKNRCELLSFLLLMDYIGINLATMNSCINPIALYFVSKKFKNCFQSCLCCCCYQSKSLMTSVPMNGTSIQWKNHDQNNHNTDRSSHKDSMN

Rattus norvegicus [7] = assay: Antihypertensive activity against MCT-induced Wistar albino rat assessed as presence of lung vasculitis at 150 to 300 mg/kg, sc by hematoxylin and eosin staining based microscopic analysis; assay type: functional, organism-based; conditions: dose 150-300 mg/kg
Rattus norvegicus [8] = assay: Antihypertensive activity against MCT-induced Wistar albino rat assessed as reduction in HIF1alpha level at 150 mg/kg, sc by ELISA analysis (reference value: 312.00 +/- 1.36 ng/ml); assay type: functional
Rattus norvegicus [9] = assay: Antihypertensive activity against MCT-induced Wistar albino rat assessed as reduction in HIF1alpha level at 300 mg/kg, sc by ELISA analysis (reference value: 312.00 +/- 1.36 ng/ml); assay type: functional
Rattus norvegicus [10] = assay: Antihypertensive activity against MCT-induced Wistar albino rat assessed as reduction in ANP level at 150 mg/kg, sc by ELISA analysis (reference value: 358.00 +/- 1.24 pg/ml); assay type: functional
Rattus norvegicus [11] = assay: Antihypertensive activity against MCT-induced Wistar albino rat assessed as reduction in ANP level at 300 mg/kg, sc by ELISA analysis (reference value: 358.00 +/- 1.24 pg/ml); assay type: functional
Rattus norvegicus [12] = assay: Antihypertensive activity against MCT-induced Wistar albino rat assessed as reduction in TNNI3 level at 150 mg/kg, sc by ELISA analysis (reference value: 3.42 +/- 0.12 pg/ml); assay type: functional
Rattus norvegicus [13] = assay: Antihypertensive activity against MCT-induced Wistar albino rat assessed as reduction in TNNI3 level at 300 mg/kg, sc by ELISA analysis (reference value: 3.42 +/- 0.12 pg/ml); assay type: functional
Rattus norvegicus [14] = assay: Antioxidant activity against MCT-induced Wistar albino rat assessed as increase in SOD level at 150 mg/kg, sc by biochemical analysis (reference value: 19.15 +/- 0.21 U/mg); assay type: functional
Rattus norvegicus [15] = assay: Antioxidant activity against MCT-induced Wistar albino rat assessed as increase in SOD level at 300 mg/kg, sc by biochemical analysis (reference value: 19.15 +/- 0.21 U/mg); assay type: functional
Rattus norvegicus [16] = assay: Antioxidant activity against MCT-induced Wistar albino rat assessed as increase in catalase level at 150 mg/kg, sc by biochemical analysis (reference value: 0.26 +/- 0.05 U/mg); assay type: functional
Rattus norvegicus [17] = assay: Antioxidant activity against MCT-induced Wistar albino rat assessed as increase in catalase level at 300 mg/kg, sc by biochemical analysis (reference value: 0.26 +/- 0.05 U/mg); assay type: functional
Rattus norvegicus [18] = assay: Antioxidant activity against MCT-induced Wistar albino rat assessed as increase in GSH level at 150 mg/kg, sc by biochemical analysis (reference value: 12.21 +/- 0.34 U/mg); assay type: functional
Rattus norvegicus [19] = assay: Antioxidant activity against MCT-induced Wistar albino rat assessed as increase in GSH level at 300 mg/kg, sc by biochemical analysis (reference value: 12.21 +/- 0.34 U/mg); assay type: functional
Rattus norvegicus [20] = assay: Antioxidant activity against MCT-induced Wistar albino rat assessed as reduction in TBARS level at 150 mg/kg, sc by biochemical analysis (reference value: 123.03 +/- 0.47 micromol); assay type: functional
Rattus norvegicus [21] = assay: Antioxidant activity against MCT-induced Wistar albino rat assessed as reduction in TBARS level at 300 mg/kg, sc by biochemical analysis (reference value: 123.03 +/- 0.47 micromol); assay type: functional
Rattus norvegicus [22] = assay: Antihypertensive activity against MCT-induced Wistar albino rat assessed as decrease in COX-2 expression by measuring fold change at 300 mg/kg, sc by quantitative RT-PCR analysis (reference value: 32.22); assay type: functional
Rattus norvegicus [23] = assay: Antihypertensive activity against MCT-induced Wistar albino rat assessed as decrease in ET-alpha expression by measuring fold change at 300 mg/kg, sc by quantitative RT-PCR analysis (reference value: 32.14); assay type: functional
Rattus norvegicus [24] = assay: Antihypertensive activity against MCT-induced Wistar albino rat assessed as decrease in ET-beta expression by measuring fold change at 300 mg/kg, sc by quantitative RT-PCR analysis (reference value: 15.17); assay type: functional
Rattus norvegicus [25] = assay: Antihypertensive activity against MCT-induced Wistar albino rat assessed as decrease in mPGES-1 expression by measuring fold change at 300 mg/kg, sc by quantitative RT-PCR analysis (reference value: 10.99); assay type: functional
Rattus norvegicus [26] = assay: Antihypertensive activity against MCT-induced Wistar albino rat assessed as increase in eNOS expression by measuring fold change at 300 mg/kg, sc by quantitative RT-PCR analysis (reference value: 0.002); assay type: functional
Rattus norvegicus [27] = assay: Antihypertensive activity against MCT-induced Wistar albino rat assessed as increase in SGC expression by measuring fold change at 300 mg/kg, sc by quantitative RT-PCR analysis (reference value: 0.01); assay type: functional
Rattus norvegicus [28] = assay: Antihypertensive activity against MCT-induced Wistar albino rat assessed as decrease in lung COX-2 expression at 300 mg/kg, sc by Western blotting analysis; assay type: functional, organism-based
Rattus norvegicus [29] = assay: Antihypertensive activity against MCT-induced Wistar albino rat assessed as decrease in lung mPGES-1 expression at 300 mg/kg, sc by Western blotting analysis; assay type: functional, organism-based
Rattus norvegicus [30] = assay: Antihypertensive activity against MCT-induced Wistar albino rat assessed as increase in lung SGC expression at 300 mg/kg, sc by Western blotting analysis; assay type: functional, organism-based
Rattus norvegicus [31] = assay: Antihypertensive activity against MCT-induced Wistar albino rat assessed as increase in lung eNOS expression at 300 mg/kg, sc by Western blotting analysis; assay type: functional, organism-based
Rattus norvegicus [32] = assay: Antihypertensive activity against MCT-induced Wistar albino rat assessed as reduction of arterial wall thickening in peribronchial arteries at 150 to 300 mg/kg, sc by hematoxylin and eosin staining based microscopic analysis; assay type: functional, organism-based; conditions: dose 150-300 mg/kg

| SMILES | Activity (Rattus norvegicus [1]) | Activity (Rattus norvegicus [2]) | Activity (Rattus norvegicus [3]) | Activity (Rattus norvegicus [4]) | Activity (Rattus norvegicus [5]) | Activity (Rattus norvegicus [6]) | IC50 (Endothelin-1 receptor) | Activity (Rattus norvegicus [8]) | Activity (Rattus norvegicus [9]) | Activity (Rattus norvegicus [10]) | Activity (Rattus norvegicus [11]) | Activity (Rattus norvegicus [12]) | Activity (Rattus norvegicus [13]) | Activity (Rattus norvegicus [14]) | Activity (Rattus norvegicus [15]) | Activity (Rattus norvegicus [16]) | Activity (Rattus norvegicus [17]) | Activity (Rattus norvegicus [18]) | Activity (Rattus norvegicus [19]) | Activity (Rattus norvegicus [20]) | other results |
| --- | --- | --- | --- | --- | --- | --- | --- | --- | --- | --- | --- | --- | --- | --- | --- | --- | --- | --- | --- | --- | --- |
| CC/C=C/CCOc1nc(-c2ncccn2)nc(NS(C)(=O)=O)c1Oc1ccccc1OC | 0.25 | 0.29 | 13.93 mmHg | 17.16 mmHg | 27.12 mmHg | 33.18 mmHg | 0.26 nM | 163.12 ng/mL | 146 ng/mL | 261.12 pg/mL | 245 pg/mL | 2.67 pg/mL | 2.36 pg/mL | 25.43 U/mg | 32.14 U/mg | 0.68 U/mg | 0.95 U/mg | 14.02 U/mg | 19.81 U/mg | 102.23 µmol | Activity (Rattus norvegicus [7]): Active; Activity (Rattus norvegicus [21]): 89 µmol; fold change (FC) (Rattus norvegicus [22]): 2.43; fold change (FC) (Rattus norvegicus [23]): 0.62; fold change (FC) (Rattus norvegicus [24]): 3.24; fold change (FC) (Rattus norvegicus [25]): 1.19; fold change (FC) (Rattus norvegicus [26]): 0.15; fold change (FC) (Rattus norvegicus [27]): 0.38; Activity (Rattus norvegicus [28]): Active; Activity (Rattus norvegicus [29]): Active; Activity (Rattus norvegicus [30]): Active; Activity (Rattus norvegicus [31]): Active |
| COc1ccccc1Oc1c(NS(C)(=O)=O)nc(-c2ncccn2)nc1OCCC(C)C | 0.23 | 0.26 | 9.02 mmHg | 11.18 mmHg | 21.11 mmHg | 26.82 mmHg | 0.18 nM | 139 ng/mL | 121 ng/mL | 241.2 pg/mL | 224 pg/mL | 1.94 pg/mL | 1.84 pg/mL | 38.21 U/mg | 46.01 U/mg | 1.09 U/mg | 1.21 U/mg | 21.92 U/mg | 28.09 U/mg | 78.12 µmol | Activity (Rattus norvegicus [32]): Active; Activity (Rattus norvegicus [21]): 69.82 µmol; fold change (FC) (Rattus norvegicus [22]): 1.81; fold change (FC) (Rattus norvegicus [23]): 0.44; fold change (FC) (Rattus norvegicus [24]): 0.34; fold change (FC) (Rattus norvegicus [25]): 0.81; fold change (FC) (Rattus norvegicus [26]): 0.63; fold change (FC) (Rattus norvegicus [27]): 0.49; Activity (Rattus norvegicus [28]): Active; Activity (Rattus norvegicus [29]): Active; Activity (Rattus norvegicus [30]): Active; Activity (Rattus norvegicus [31]): Active |
